# Entries after “also recorded” stand apart in the source; their conditions may differ.
# Assay: pH dependent solubility of drug or wax
smiles,measurement,value
COc1cc(Cc2cnc(N)nc2N)cc(OC)c1OC [trimethoprim],solubility,more soluble at acidic pH values; also recorded: the solubility of the two drugs is pH dependent
